According to PMC6099706, “Anti-Mycobacterium tuberculosis Activity of Esters of Quinoxaline 1,4-Di-N-Oxide” (Molecules : A Journal of Synthetic Chemistry and Natural …, 2018):
Values after ≈ are worked out from the molar mass of the structure shown.

Each compound was assayed on Mycobacterium tuberculosis strain H37Rv (assay: microplate Alamar blue assay (MABA)). Settings: Mycobacterium tuberculosis, H37RV, M. tuberculosis H37Rv; lowest concentration effecting 90% inhibition.
Format: cell-based
`CCC(=O)c1c(C(F)(F)F)[n+]([O-])c2ccc(C(=O)OC)cc2[n+]1[O-]` [Compound T-038] was tested, and the MIC was less than 0.4 µg/mL. `CC(C)OC(=O)c1ccc2c(c1)[n+]([O-])c(C(=O)C(C)(C)C)c(C(C)(C)C)[n+]2[O-]` [Compound T-107] showed an MIC of 2.1 µg/mL (≈ 5.41 µM). For `CC(=O)c1c(C)[n+]([O-])c2ccc(C(=O)OC(C)C)cc2[n+]1[O-]` [Compound T-084], the MIC was 0.8 µg/mL (≈ 2.63 µM). `CCCOC(=O)c1ccc2c(c1)[n+]([O-])c(C(=O)Nc1ccccc1)c(C)[n+]2[O-]` [Compound T-125] gave an MIC of 12.3 µg/mL (≈ 32.3 µM). For `COC(=O)c1ccc2c(c1)[n+]([O-])c(C(=O)Nc1ccccc1)c(C)[n+]2[O-]` [Compound T-012], the MIC was 1.07 µg/mL (≈ 3.03 µM). `Cc1c(C(=O)Nc2ccccc2)[n+]([O-])c2cc(C(=O)OC(C)C)ccc2[n+]1[O-]` [Compound T-097] showed an MIC greater than 20 µg/mL. With `CC(C)OC(=O)c1ccc2no[n+]([O-])c2c1` [Compound T-063] the MIC was 1.4 µg/mL (≈ 6.3 µM). `CC(C)OC(=O)c1ccc2c(c1)[n+]([O-])c(C(=O)c1ccccc1)c(C(F)(F)F)[n+]2[O-]` [Compound T-071] was tested, and the MIC was 1.19 µg/mL (≈ 2.83 µM). In the case of `COC(=O)c1ccc2no[n+]([O-])c2c1` [Compound T-014], the MIC is reported as 7.6 µg/mL (≈ 39.1 µM). For `CCOC(=O)c1ccc2c(c1)[n+]([O-])c(C(=O)OCC)c(C)[n+]2[O-]` [Compound T-015], the MIC was 0.5 µg/mL (≈ 1.56 µM). For `CC(=O)c1c(C(F)(F)F)[n+]([O-])c2ccc(C(=O)OC(C)C)cc2[n+]1[O-]` [Compound T-070], the MIC was no more than 0.15 µg/mL. `CCCOC(=O)c1ccc2c(c1)[n+]([O-])c(C(=O)OCC)c(C)[n+]2[O-]` [Compound T-090] gave an MIC of 0.8 µg/mL (≈ 2.39 µM). `Cc1c(C(=O)OC(C)(C)C)[n+]([O-])c2cc(C(=O)OC(C)C)ccc2[n+]1[O-]` [Compound T-066] was tested, and the MIC was 68.6 µg/mL (≈ 189 µM). Work on `CCOC(=O)c1c(-c2ccccc2)[n+]([O-])c2ccc(C(=O)OC)cc2[n+]1[O-]` [Compound T-042] yielded an MIC of 1 µg/mL (≈ 2.71 µM). For `COC(=O)c1c(C)[n+]([O-])c2ccc(C(=O)OC(C)C)cc2[n+]1[O-]` [Compound T-064], the MIC was 0.58 µg/mL (≈ 1.81 µM). Compound `Cc1c(C(N)=O)[n+]([O-])c2cc(C(=O)OC(C)C)ccc2[n+]1[O-]` [Compound T-108] has an MIC of 22.5 µg/mL (≈ 73.7 µM). With `CCCOC(=O)c1ccc2c(c1)[n+]([O-])c(C(=O)OCC)c(C(F)(F)F)[n+]2[O-]` [Compound T-124] the MIC was 3 µg/mL (≈ 7.73 µM). `CCOC(=O)c1c(C)[n+]([O-])c2ccc(C(=O)OC)cc2[n+]1[O-]` [Compound T-013] was tested, and the MIC was 0.47 µg/mL (≈ 1.53 µM). `COC(=O)c1ccc2c(c1)[n+]([O-])c(C(=O)c1ccccc1)c(C)[n+]2[O-]` [Compound T-003] was tested, and the MIC was 3.47 µg/mL (≈ 10.3 µM). For `CCOC(=O)Cc1c(C(=O)OCC)[n+]([O-])c2cc(C(=O)OC)ccc2[n+]1[O-]` [Compound T-037], the MIC was 1.2 µg/mL (≈ 3.17 µM). In the case of `CC(C)OC(=O)c1ccc2c(c1)[n+]([O-])c(C(=O)c1ccco1)c(C(F)(F)F)[n+]2[O-]` [Compound T-073], the MIC is reported as 0.7 µg/mL (≈ 1.71 µM). Work on `CCCOC(=O)c1ccc2c(c1)[n+]([O-])c(C(=O)OCC)c(C(=O)C(=O)OCC)[n+]2[O-]` [Compound T-112] yielded an MIC of 1.4 µg/mL (≈ 3.33 µM).

Same assay, conditions: meaning not defined in the paper; printed beside the highest concentration
`Cc1c(C(=O)Nc2ccccc2)[n+]([O-])c2cc(C(=O)OC(C)C)ccc2[n+]1[O-]` [Compound T-097] was tested, and the “MABA percentage in parentheses after the MIC bound” value was 6%.

These compounds were tested on nonreplicating persistent (NRP) M. tuberculosis strain (assay: microbe, parasite or virus in culture). Settings: Mycobacterium tuberculosis; nonreplicating persistent strain; read-out: LORA MIC.
Format: cell-based, Mycobacterium tuberculosis
`CC(=O)c1c(C)[n+]([O-])c2ccc(C(=O)OC(C)C)cc2[n+]1[O-]` [Compound T-084] showed an MIC of 0.6 µg/mL (≈ 1.97 µM). With `COC(=O)c1ccc2c(c1)[n+]([O-])c(C(=O)Nc1ccccc1)c(C)[n+]2[O-]` [Compound T-012] the MIC was 0.86 µg/mL (≈ 2.43 µM). `Cc1c(C(=O)Nc2ccccc2)[n+]([O-])c2cc(C(=O)OC(C)C)ccc2[n+]1[O-]` [Compound T-097] showed an MIC greater than 20 µg/mL. `CC(C)OC(=O)c1ccc2no[n+]([O-])c2c1` [Compound T-063] was tested, and the MIC was 3.04 µg/mL (≈ 13.7 µM). Compound `CC(C)OC(=O)c1ccc2c(c1)[n+]([O-])c(C(=O)c1ccccc1)c(C(F)(F)F)[n+]2[O-]` [Compound T-071] has an MIC of 0.64 µg/mL (≈ 1.52 µM). In the case of `COC(=O)c1ccc2no[n+]([O-])c2c1` [Compound T-014], the MIC is reported as 13 µg/mL (≈ 66.9 µM). In the case of `CCOC(=O)c1ccc2c(c1)[n+]([O-])c(C(=O)OCC)c(C)[n+]2[O-]` [Compound T-015], the MIC is reported as 0.49 µg/mL (≈ 1.53 µM). With `CC(=O)c1c(C(F)(F)F)[n+]([O-])c2ccc(C(=O)OC(C)C)cc2[n+]1[O-]` [Compound T-070] the MIC was 0.24 µg/mL (≈ 0.67 µM). `Cc1c(C(=O)OC(C)(C)C)[n+]([O-])c2cc(C(=O)OC(C)C)ccc2[n+]1[O-]` [Compound T-066] was tested, and the MIC was greater than 100 µg/mL. Compound `CCOC(=O)c1c(-c2ccccc2)[n+]([O-])c2ccc(C(=O)OC)cc2[n+]1[O-]` [Compound T-042] has an MIC of 0.5 µg/mL (≈ 1.36 µM). `COC(=O)c1c(C)[n+]([O-])c2ccc(C(=O)OC(C)C)cc2[n+]1[O-]` [Compound T-064] showed an MIC of 0.56 µg/mL (≈ 1.75 µM). Compound `CCOC(=O)c1c(C)[n+]([O-])c2ccc(C(=O)OC)cc2[n+]1[O-]` [Compound T-013] has an MIC of 0.54 µg/mL (≈ 1.76 µM). Work on `COC(=O)c1ccc2c(c1)[n+]([O-])c(C(=O)c1ccccc1)c(C)[n+]2[O-]` [Compound T-003] yielded an MIC of 1.49 µg/mL (≈ 4.4 µM). `CCOC(=O)Cc1c(C(=O)OCC)[n+]([O-])c2cc(C(=O)OC)ccc2[n+]1[O-]` [Compound T-037] showed an MIC of 1.9 µg/mL (≈ 5.02 µM). In the case of `CC(C)OC(=O)c1ccc2c(c1)[n+]([O-])c(C(=O)c1ccco1)c(C(F)(F)F)[n+]2[O-]` [Compound T-073], the MIC is reported as 0.6 µg/mL (≈ 1.46 µM).

Same assay, conditions: meaning not defined in the paper; printed beside the highest concentration
With `Cc1c(C(=O)Nc2ccccc2)[n+]([O-])c2cc(C(=O)OC(C)C)ccc2[n+]1[O-]` [Compound T-097] the “LORA percentage in parentheses after the MIC bound” value was 33%. `Cc1c(C(=O)OC(C)(C)C)[n+]([O-])c2cc(C(=O)OC(C)C)ccc2[n+]1[O-]` [Compound T-066] was tested, and the “LORA percentage in parentheses after the MIC bound” value was 77%.

What follows are compounds tested against M. tuberculosis gyrase (GyrA and Gyr B subunits) (Mycobacterium tuberculosis, UniProt P9WG45+P9WG47) (assay: M. tuberculosis gyrase supercoiling assay). Settings: at 50 μM.
Sequence of M. tuberculosis gyrase (GyrA and Gyr B subunits) (P9WG45 whole entry): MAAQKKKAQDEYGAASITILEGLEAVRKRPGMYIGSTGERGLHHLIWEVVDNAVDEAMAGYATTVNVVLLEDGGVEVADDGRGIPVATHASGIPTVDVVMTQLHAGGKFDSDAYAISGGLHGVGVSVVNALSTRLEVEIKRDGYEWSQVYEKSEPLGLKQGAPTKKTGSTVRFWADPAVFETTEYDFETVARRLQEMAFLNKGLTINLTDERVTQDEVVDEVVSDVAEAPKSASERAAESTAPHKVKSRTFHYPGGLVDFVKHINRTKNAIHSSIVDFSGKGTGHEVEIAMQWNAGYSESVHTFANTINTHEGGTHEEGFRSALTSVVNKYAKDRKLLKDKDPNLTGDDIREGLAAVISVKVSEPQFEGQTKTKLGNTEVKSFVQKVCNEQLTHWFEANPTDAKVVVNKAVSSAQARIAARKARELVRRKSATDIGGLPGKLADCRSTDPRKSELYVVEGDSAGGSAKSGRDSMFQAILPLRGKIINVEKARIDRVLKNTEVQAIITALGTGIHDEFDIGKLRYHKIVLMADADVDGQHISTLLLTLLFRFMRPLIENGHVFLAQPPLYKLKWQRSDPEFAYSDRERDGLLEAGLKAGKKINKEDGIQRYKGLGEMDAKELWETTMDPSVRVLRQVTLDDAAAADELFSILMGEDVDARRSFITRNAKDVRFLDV
Sequence of M. tuberculosis gyrase (GyrA and Gyr B subunits) (P9WG47 whole entry): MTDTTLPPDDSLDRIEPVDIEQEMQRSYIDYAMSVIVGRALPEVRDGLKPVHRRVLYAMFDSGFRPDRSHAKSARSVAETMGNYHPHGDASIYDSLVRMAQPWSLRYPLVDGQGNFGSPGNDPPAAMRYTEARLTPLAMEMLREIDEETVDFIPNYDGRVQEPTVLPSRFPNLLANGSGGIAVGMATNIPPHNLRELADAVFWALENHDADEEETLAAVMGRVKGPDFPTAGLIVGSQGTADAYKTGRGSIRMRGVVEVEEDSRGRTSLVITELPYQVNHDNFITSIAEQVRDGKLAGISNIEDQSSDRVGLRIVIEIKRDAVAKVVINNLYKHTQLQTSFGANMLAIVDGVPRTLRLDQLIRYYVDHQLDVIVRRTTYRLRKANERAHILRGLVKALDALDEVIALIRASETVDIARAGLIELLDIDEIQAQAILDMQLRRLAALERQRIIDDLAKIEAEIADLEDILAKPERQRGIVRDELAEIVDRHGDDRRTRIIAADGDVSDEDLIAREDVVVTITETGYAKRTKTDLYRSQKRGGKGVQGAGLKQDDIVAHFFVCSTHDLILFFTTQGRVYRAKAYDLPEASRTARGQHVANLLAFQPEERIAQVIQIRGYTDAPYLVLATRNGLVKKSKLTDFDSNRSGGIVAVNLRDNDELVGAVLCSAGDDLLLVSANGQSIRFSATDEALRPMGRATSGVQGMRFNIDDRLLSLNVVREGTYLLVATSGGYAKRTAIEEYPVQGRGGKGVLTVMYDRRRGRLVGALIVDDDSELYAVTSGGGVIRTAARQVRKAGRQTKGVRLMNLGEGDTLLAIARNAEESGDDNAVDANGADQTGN
Format: biochemical
Method: The activity of the enzyme was determined prior to the testing of the quinoxaline 1,4-di-N-oxide derivatives and 1 U was defined as the amount of enzyme required to just fully supercoil the substrate under test conditions. Compounds were tested at 50 μM. Final DMSO concentration in the assays was 1% (v/v).
1 U of M. tuberculosis gyrase (GyrA and Gyr B subunits) (final concentration in assay 50 nM) was incubated with 0.5 μg of relaxed pBR322 DNA in a 30 μL reaction at 37 °C for 30 min under the following conditions: 50 mM HEPES. KOH (pH 7.9), 6 mM magnesium acetate, 4 mM DTT, 1 mM ATP, 100 mM potassium glutamate, 2 mM spermidine and 0.05 mg/mL albumin.
Each reaction was stopped by the addition of 30 μL chloroform/iso-amyl alcohol (26:1) and 20 μL Stop Dye (40% sucrose, 100 mM Tris.HCl (pH 7.5), 10 mM EDTA, 0.5 μg/mL bromophenol blue), before being loaded on a 1.0% TAE (Tris.acetate […], EDTA […]) gel run at 80 V for 2 h.
Bands were visualized by ethidium staining for 10 min, destained for 10 min in water, analyzed by gel documentation equipment (Syngene, Cambridge, UK), and quantified using Syngene software (Genetools version 4.00 (1997–1998), Syngene, A division of Synoptics Corp, Cambridge, UK).
Raw gel data (fluorescent band volumes) collected from Syngene’s GeneTools gel analysis software were converted to a % of the 100% control (the supercoiled enzyme plus DMSO control DNA band). These were analyzed using SigmaPlot Version 13.0 (Systat Software Inc., London, UK; 2016).
`CCC(=O)c1c(C(F)(F)F)[n+]([O-])c2ccc(C(=O)OC)cc2[n+]1[O-]` [Compound T-038] was tested, and the “inhibitory effect on M. tuberculosis gyrase supercoiling” value (from here on “inhibitory effect”) was “none of the compounds showed an inhibitory effect”. In the case of `CCCOC(=O)c1ccc2c(c1)[n+]([O-])c(C(=O)Nc1ccccc1)c(C)[n+]2[O-]` [Compound T-125], the “inhibitory effect” value is reported as “none of the compounds showed an inhibitory effect”. In the case of `COC(=O)c1ccc2c(c1)[n+]([O-])c(C(=O)Nc1ccccc1)c(C)[n+]2[O-]` [Compound T-012], the “inhibitory effect” value is reported as “none of the compounds showed an inhibitory effect”. In the case of `COC(=O)c1c(C)[n+]([O-])c2ccc(C(=O)OC(C)C)cc2[n+]1[O-]` [Compound T-064], the “inhibitory effect” value is reported as “none of the compounds showed an inhibitory effect”. For `Cc1c(C(N)=O)[n+]([O-])c2cc(C(=O)OC(C)C)ccc2[n+]1[O-]` [Compound T-108], the “inhibitory effect” value was “none of the compounds showed an inhibitory effect”. `CCOC(=O)c1c(C)[n+]([O-])c2ccc(C(=O)OC)cc2[n+]1[O-]` [Compound T-013] was tested, and the “inhibitory effect” value was “none of the compounds showed an inhibitory effect”. With `COC(=O)c1ccc2c(c1)[n+]([O-])c(C(=O)c1ccccc1)c(C)[n+]2[O-]` [Compound T-003] the “inhibitory effect” value was “none of the compounds showed an inhibitory effect”.
